Assay results: paper PMC5693942 (Scientific Reports, 2017)
“And” between values parts separate entries of the source, which are not always exact repeats. Identical values can stand only once. “Also recorded” adds a separate entry of the source.

Key:
[1] = Activated sludge simulating microcosms (degradation of FL, formation of NFL); format: physicochemical; settings: for transformation / removal: 24 h
Method: Activated sludge microcosm experiments were conducted in the dark and aerobic conditions. Three microcosm bioreactors were investigated in duplicate. They were filled with 2 L of fresh activated sludge collected from a local wastewater treatment plant. […] Dark conditions were simulated by covering up the flask with foil. Aerobic conditions were obtained using air from BOC air cylinder and a thorough mixing was maintained using magnetic stirrers. The experiment was 24 hours long. […] Collected samples were subsequently frozen until their analysis to prevent degradation of compounds.
The compounds studied are characterized as having low volatility and therefore volatilization was not considered as a potential removal pathway in studied microcosms. Photodegradation was also not considered (not relevant) under tested activated sludge conditions. Therefore the two important degradation mechanisms to consider were biodegradation and sorption to sludge. […] However, in this study, sorption equilibrium was assumed and therefore sorption could be considered negligible. This is because sorption is assumed to be fast when compared to biological degradation.
Several reports utilized pseudo-first-order kinetics for degradation of micropollutants in activated sludge reactors[48]–[50]. […] Pseudo-first order biodegradation rate k1 [L g^−1h^−1]

P. promelas = settings: ref [34]; cited from earlier work
D. magna = settings: ref [34]; cited from earlier work
[2] = River water simulating microcosms (degradation of FL); settings: for removal of FL: river water
Tetrahymena thermophila = assay: microbe, parasite or virus in culture; format: cell-based
Method: The tests were performed in accordance with the protocols provided by the manufacturer. […] The tests were carried out in disposable spectrophotometric cells of 1 cm path-length, to enable the measurement of the optical density (OD) at 440 nm. […] This change in OD over the time period is used to quantify the degree of inhibition and subsequent calculation of the EC50. Each concentration was repeated in duplicate.

Daphnia magna = Daphnia magna acute 48 h immobilization assay (Daphtoxkit); format: in vivo; settings: 48 h;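 note: test concentrations in mg per L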
Method: Six concentration levels (5 concentrations plus control, four replicate beakers for each concentrations, five individual for each beaker) were tested. […] Each experiment was repeated in triplicate.

[3] = ref [3], cited from earlier work
[4] = 100 µg L^−1, pseudo-first order
[5] = dark biotic conditions (DBR), 1 µg L^−1 racemic FL, 16 days
[6] = light abiotic conditions (LAR), 1 µg L^−1 racemic FL, 16 days
[7] = light biotic reactor (LBR), 1 µg L^−1 racemic FL, 16 days
[8] = 10 µg L^−1 microcosm, first 30 minutes

CNCC[C@@H](Oc1ccc(C(F)(F)F)cc1)c1ccccc1 [(R)-FL, (R)-N-Methyl-3-(4-trifluoromethylphenoxy)-3-phenylpropylamine]
degradation ([1]; 10 µg L^−1): lack of degradation; also recorded: No degradation
kbiol ([1]; 100 µg L^−1): 0.01 LgSS ^−1h^−1
t1/2biol ([1]; 100 µg L^−1): 68 h and 68.0 h
k1 [1, 4]: 0.02 h⁻¹
transformation / removal ([1]; 100 µg L^−1 microcosm): 38%
LOEC7d -feeding (P. promelas): 0.17 mg/L
LOEC7d -growth (P. promelas): 0.17 mg/L
LOEC7d -survival (P. promelas): 0.17 mg/L
LOEC21d -grazing (D. magna): none
LOEC21d -immobilization (D. magna): 0.43 mg/L
LOEC21d -reproduction (D. magna): 0.43 mg/L
removal of FL [2, 5]: 67.9%
removal of FL [2, 6]: 79.2%
removal of FL [2, 7]: 96.7%
times more toxic than (S)-FL (Tetrahymena thermophila; Tetrahymena thermophila): 30 ×
% I (percentage inhibition) (Tetrahymena thermophila; definitive test, conc. 0.086): -8.032%
% I (percentage inhibition) (Tetrahymena thermophila; definitive test, conc. 24.098): 91.516%
% I (percentage inhibition) (Tetrahymena thermophila; definitive test, conc. 79.522): 90.724%
% I (percentage inhibition) (Tetrahymena thermophila; range test, conc. 0.005): -3.105%
% I (percentage inhibition) (Tetrahymena thermophila; range test, conc. 0.050): 5.433%
% I (percentage inhibition) (Tetrahymena thermophila; range test, conc. 0.500): -1.164%
% I (percentage inhibition) (Tetrahymena thermophila; range test, conc. 5.000): 39.974%
Average effect (N immobile, 5 daphnids per replicate) (Daphnia magna; concentration 0.5): 0
Average effect (N immobile, 5 daphnids per replicate) (Daphnia magna; concentration 1.5): 0.25
Average effect (N immobile, 5 daphnids per replicate) (Daphnia magna; concentration 5): 3.25
Average effect (N immobile, 5 daphnids per replicate) (Daphnia magna; concentration 16): 5
Average effect (N immobile, 5 daphnids per replicate) (Daphnia magna; concentration 50): 5

CNCC[C@H](Oc1ccc(C(F)(F)F)cc1)c1ccccc1 [(S)-FL]
kbiol ([1]; 10 µg L^−1): 0.04 LgSS ^−1h^−1
t1/2biol ([1]; 10 µg L^−1): 19 h and 18.9 h
k1 ([1]; 10 µg L^−1, pseudo-first order): 0.07 h⁻¹
kbiol ([1]; 100 µg L^−1): 0.04 LgSS ^−1h^−1
t1/2biol ([1]; 100 µg L^−1): 19 h and 19.4 h
k1 [1, 4]: 0.07 h⁻¹
transformation / removal ([1]; 100 µg L^−1 microcosm): 80%
LOEC7d -feeding (P. promelas): 0.05 mg/L
LOEC7d -growth (P. promelas): 0.05 mg/L
LOEC7d -survival (P. promelas): 0.10 mg/L
LOEC21d -grazing (D. magna): 0.20 mg/L
LOEC21d -immobilization (D. magna): 0.44 mg/L
LOEC21d -reproduction (D. magna): 0.44 mg/L
removal of FL [2, 5]: 60.4%
removal of FL [2, 6]: 74.5%
removal of FL [2, 7]: 98.4%
% I (percentage inhibition) (Tetrahymena thermophila; definitive test, conc. 0.104): -1.720%
% I (percentage inhibition) (Tetrahymena thermophila; definitive test, conc. 0.313): 4.194%
% I (percentage inhibition) (Tetrahymena thermophila; definitive test, conc. 0.535): 0.108%
% I (percentage inhibition) (Tetrahymena thermophila; definitive test, conc. 10.446): 7.204%
% I (percentage inhibition) (Tetrahymena thermophila; definitive test, conc. 20.892): 22.366%
% I (percentage inhibition) (Tetrahymena thermophila; definitive test, conc. 68.945): 73.441%
% I (percentage inhibition) (Tetrahymena thermophila; definitive test, conc. 104.462): 83.118%
% I (percentage inhibition) (Tetrahymena thermophila; range test, conc. 0.005): 22.617%
% I (percentage inhibition) (Tetrahymena thermophila; range test, conc. 0.050): 21.857%
% I (percentage inhibition) (Tetrahymena thermophila; range test, conc. 0.500): 26.510%
% I (percentage inhibition) (Tetrahymena thermophila; range test, conc. 5.000): 26.130%
% I (percentage inhibition) (Tetrahymena thermophila; range test, conc. 50.000): 57.653%
Average effect (N immobile, 5 daphnids per replicate) (Daphnia magna; concentration 0.5): 0.25
Average effect (N immobile, 5 daphnids per replicate) (Daphnia magna; concentration 1.5): 1
Average effect (N immobile, 5 daphnids per replicate) (Daphnia magna; concentration 5): 3.25
Average effect (N immobile, 5 daphnids per replicate) (Daphnia magna; concentration 16): 5
Average effect (N immobile, 5 daphnids per replicate) (Daphnia magna; concentration 50): 5

CNCCC(Oc1ccc(C(F)(F)F)cc1)c1ccccc1 (stereo not drawn) [FL, Fluoxetine, reference compound]
excreted in the urine as this species ([3]; after FL): 11.6%
excreted in the feces [3]: approximately 15%
excreted in the urine [3]: 80%
EF ([1]; 10 µg L-1 microcosm, time 0): 0.484
EF ([1]; 10 µg L-1 microcosm, time 0.5): 0.504
EF ([1]; 10 µg L-1 microcosm, time 1): 0.347
EF ([1]; 10 µg L-1 microcosm, time 1.5): 0.499
EF ([1]; 10 µg L-1 microcosm, time 2): 0.480
EF ([1]; 10 µg L-1 microcosm, time 3): 0.499
EF ([1]; 10 µg L-1 microcosm, time 5): 0.429
EF ([1]; 10 µg L-1 microcosm, time 8): 0.461
EF ([1]; 10 µg L-1 microcosm, time 12): 0.263
EF ([1]; 10 µg L-1 microcosm, time 24): 0.260
lag phase ([1]; 10 µg L^−1 FL bioreactor): 3 h
degradation (rapid removal from aqueous phase) [1, 8]: 50%
enantiomeric fraction (EF) [1, 8]: 0.5
enantiomeric fraction (EF) ([1]; 10 µg L^−1 reactor, after further slow removal): < 0.3
EF ([1]; 100 µg L-1 microcosm, time 0): 0.531
EF ([1]; 100 µg L-1 microcosm, time 0.5): 0.519
EF ([1]; 100 µg L-1 microcosm, time 1): 0.515
EF ([1]; 100 µg L-1 microcosm, time 1.5): 0.516
EF ([1]; 100 µg L-1 microcosm, time 2): 0.511
EF ([1]; 100 µg L-1 microcosm, time 3): 0.477
EF ([1]; 100 µg L-1 microcosm, time 5): 0.431
EF ([1]; 100 µg L-1 microcosm, time 8): 0.410
EF ([1]; 100 µg L-1 microcosm, time 12): 0.326
EF ([1]; 100 µg L-1 microcosm, time 24): 0.257
lag phase ([1]; 100 µg L^−1 FL bioreactor): 2 h
enantiomeric fraction (EF) ([1]; 100 µg L^−1 microcosm): < 0.3
transformation / removal ([1]; 100 µg L^−1 microcosm): 60%
EF ([2]; DAR (dark abiotic), day 1): 0.499
EF ([2]; DAR (dark abiotic), day 2): 0.502
EF ([2]; DAR (dark abiotic), day 3): 0.504
EF ([2]; DAR (dark abiotic), day 4): 0.507
EF ([2]; DAR (dark abiotic), day 9): 0.497
EF ([2]; DAR (dark abiotic), day 10): 0.505
EF ([2]; DAR (dark abiotic), day 11): 0.526
EF ([2]; DAR (dark abiotic), day 15): 0.497
EF ([2]; DBR (dark biotic), day 1): 0.506
EF ([2]; DBR (dark biotic), day 2): 0.468
EF ([2]; DBR (dark biotic), day 3): 0.496
EF ([2]; DBR (dark biotic), day 4): 0.503
EF ([2]; DBR (dark biotic), day 5): 0.495
EF ([2]; DBR (dark biotic), day 8): 0.441
EF ([2]; DBR (dark biotic), day 9): 0.499
EF ([2]; DBR (dark biotic), day 10): 0.507
EF ([2]; DBR (dark biotic), day 11): 0.495
EF ([2]; DBR (dark biotic), day 12): 0.490
EF ([2]; DBR (dark biotic), day 15): 0.538
EF ([2]; DBR (dark biotic), day 16): 0.554
EF ([2]; LAR (light abiotic), day 1): 0.497
EF ([2]; LAR (light abiotic), day 2): 0.488
EF ([2]; LAR (light abiotic), day 3): 0.491
EF ([2]; LAR (light abiotic), day 4): 0.498
EF ([2]; LAR (light abiotic), day 5): 0.511
EF ([2]; LAR (light abiotic), day 8): 0.508
EF ([2]; LAR (light abiotic), day 9): 0.513
EF ([2]; LAR (light abiotic), day 10): 0.511
EF ([2]; LAR (light abiotic), day 11): 0.512
EF ([2]; LAR (light abiotic), day 12): 0.487
EF ([2]; LAR (light abiotic), day 15): 0.531
EF ([2]; LAR (light abiotic), day 16): 0.535
EF ([2]; LBR (light biotic), day 1): 0.493
EF ([2]; LBR (light biotic), day 2): 0.493
EF ([2]; LBR (light biotic), day 3): 0.498
EF ([2]; LBR (light biotic), day 4): 0.502
EF ([2]; LBR (light biotic), day 5): 0.508
EF ([2]; LBR (light biotic), day 8): 0.537
EF ([2]; LBR (light biotic), day 9): 0.512
EF ([2]; LBR (light biotic), day 10): 0.497
EF ([2]; LBR (light biotic), day 11): 0.498
EF ([2]; LBR (light biotic), day 12): 0.491
EF ([2]; LBR (light biotic), day 15): 0.525
EF ([2]; LBR (light biotic), day 16): 0.467
removal of FL ([2]; dark abiotic conditions (DAR)): did not lead to any significant removal
